Data reported in BindingDB's records for doi:10.1021/bi990204w (National Institute of Diabetes and Digestive and Kidney …, 1999).
“And” between values parts separate entries of the source, which are not always exact repeats. Equal values may be shown once. Where a SMILES comes first, the peptide text is derived from it. Bridges are numbered along the chain shown (N, C = ends). [ ]: non-standard residue; d: D form. The star is where a group is joined. X1 = CC(C)C[C@@H](CN[C@@H](CC(C)C)C(N)=O)N*; 2Nal = N[C@@H](Cc1ccc2ccccc2c1)C(=O)O; d2Nal = N[C@H](Cc1ccc2ccccc2c1)C(=O)O; pGlu = O=C1CC[C@@H](C(=O)O)N1; Nle = CCCC[C@H](N)C(=O)O; βAla = NCCC(=O)O

Experiments:
[1] = target: Gastrin-releasing peptide receptor (Rattus norvegicus, UniProt P52500)
Gastrin-releasing peptide receptor (Rattus norvegicus, UniProt P52500), sequence (P52500 whole entry N28S): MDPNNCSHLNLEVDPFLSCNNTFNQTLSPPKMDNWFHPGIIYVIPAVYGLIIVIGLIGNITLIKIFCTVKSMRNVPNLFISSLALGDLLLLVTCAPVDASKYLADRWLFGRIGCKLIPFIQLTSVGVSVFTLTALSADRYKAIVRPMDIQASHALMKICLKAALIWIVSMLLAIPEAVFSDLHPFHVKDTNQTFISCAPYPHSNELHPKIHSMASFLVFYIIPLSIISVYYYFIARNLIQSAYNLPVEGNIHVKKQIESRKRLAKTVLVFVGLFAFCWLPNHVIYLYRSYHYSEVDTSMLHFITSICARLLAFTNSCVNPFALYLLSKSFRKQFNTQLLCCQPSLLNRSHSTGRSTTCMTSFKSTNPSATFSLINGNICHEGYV

[2] = target: Gastrin-releasing peptide receptor (Mus musculus, UniProt P21729)
Gastrin-releasing peptide receptor (Mus musculus, UniProt P21729), sequence (P21729 whole entry): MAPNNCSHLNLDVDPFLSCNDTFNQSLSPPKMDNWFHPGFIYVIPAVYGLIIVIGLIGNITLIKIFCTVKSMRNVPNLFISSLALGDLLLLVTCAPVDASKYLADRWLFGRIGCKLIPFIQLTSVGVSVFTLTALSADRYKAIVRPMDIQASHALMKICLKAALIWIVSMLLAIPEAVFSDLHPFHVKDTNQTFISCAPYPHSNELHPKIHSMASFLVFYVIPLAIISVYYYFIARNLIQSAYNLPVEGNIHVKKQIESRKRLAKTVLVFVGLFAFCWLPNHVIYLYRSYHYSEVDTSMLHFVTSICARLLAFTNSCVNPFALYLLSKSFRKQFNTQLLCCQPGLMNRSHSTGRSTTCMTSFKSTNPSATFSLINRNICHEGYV

Neuromedin-B receptor = target: T1, Neuromedin-B receptor (Rattus norvegicus, UniProt P24053)
T1 sequence (P24053 whole entry): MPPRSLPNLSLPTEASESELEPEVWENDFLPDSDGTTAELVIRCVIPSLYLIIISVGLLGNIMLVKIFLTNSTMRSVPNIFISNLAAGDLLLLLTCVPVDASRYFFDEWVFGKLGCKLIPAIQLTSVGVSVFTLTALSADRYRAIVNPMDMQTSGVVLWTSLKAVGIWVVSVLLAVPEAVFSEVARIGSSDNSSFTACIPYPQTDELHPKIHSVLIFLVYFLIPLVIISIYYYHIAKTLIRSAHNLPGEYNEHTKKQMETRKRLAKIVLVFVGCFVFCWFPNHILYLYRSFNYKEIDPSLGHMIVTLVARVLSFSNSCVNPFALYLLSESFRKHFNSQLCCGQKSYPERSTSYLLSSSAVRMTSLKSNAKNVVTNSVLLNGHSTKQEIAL

[3] = target: T2, Bombesin receptor subtype-3 (Homo sapiens, UniProt P32247)
T2 sequence (P32247 whole entry): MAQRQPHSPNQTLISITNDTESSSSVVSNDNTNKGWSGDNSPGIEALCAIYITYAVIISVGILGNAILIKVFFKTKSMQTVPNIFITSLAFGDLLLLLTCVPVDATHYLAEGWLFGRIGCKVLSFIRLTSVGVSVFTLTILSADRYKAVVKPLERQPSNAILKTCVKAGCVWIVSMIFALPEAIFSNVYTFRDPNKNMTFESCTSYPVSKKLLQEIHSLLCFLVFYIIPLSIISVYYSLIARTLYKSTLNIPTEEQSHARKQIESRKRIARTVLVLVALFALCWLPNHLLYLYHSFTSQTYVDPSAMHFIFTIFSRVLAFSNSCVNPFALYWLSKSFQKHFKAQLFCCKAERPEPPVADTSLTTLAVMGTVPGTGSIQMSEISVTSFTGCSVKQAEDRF

Compound	Ki [1] [nM]	Ki [2]	Ki (Neuromedin-B receptor) [nM]	Ki [3] [nM]
CCCC[C@H](NC(=O)[C@H](Cc1ccccc1)NC(=O)[C@H](Cc1c[nH]cn1)NC(=O)CCNC(=O)[C@@H](NC(=O)[C@H](C)NC(=O)[C@H](Cc1c[nH]c2ccccc12)NC(=O)[C@H](CCC(N)=O)NC(=O)[C@H](N)Cc1ccccc1)C(C)C)C(N)=O [DPhe6,BetaAla11,Phe13,Nle14-Bn(6-14)] (H-[dF]QWAV[βAla]HF[Nle]-NH2)	0.99	0.26 nM and 0.24 nM and 0.19 nM and 0.11 nM	0.36	8.9
CCCCNC(=O)[C@H](CC(C)C)NC(=O)[C@H](Cc1cnc[nH]1)NC(=O)[C@@H](C)NC(=O)[C@@H](NC(=O)[C@H](C)NC(=O)[C@H](Cc1c[nH]c2ccccc12)NC(=O)[C@H](CCC(N)=O)NC(=O)[C@H](N)Cc1ccc(O)cc1)C(C)C [DTyr6,DAla11-Bn(6-13)butylamide]	6		2300	5300
CSCC[C@H](NC(=O)[C@H](CC(C)C)NC(=O)[C@@H](Cc1ccccc1)NC(=O)CNC(=O)[C@@H](NC(=O)[C@H](C)NC(=O)[C@H](Cc1c[nH]c2ccccc12)NC(=O)[C@H](CCC(N)=O)NC(=O)[C@H](CC(N)=O)NC(=O)CNC(=O)[C@H](CC(C)C)NC(=O)[C@H](CCCN=C(N)N)NC(=O)[C@H](CCC(N)=O)NC(=O)[C@@H]1CCC(=O)N1)C(C)C)C(N)=O [Dphe12-Bn]	> 10000		1900	> 10000
CSCC[C@H](NC(=O)[C@H](CC(C)C)NC(=O)[C@H](Cc1cnc[nH]1)NC(=O)CNC(=O)[C@@H](NC(=O)[C@H](C)NC(=O)[C@H](Cc1c[nH]c2ccccc12)NC(=O)[C@H](Cc1cnc[nH]1)NC(=O)[C@H](CC(N)=O)NC(=O)CN)C(C)C)C(N)=O [GRP-10,frog]	130		> 10000	> 10000
CC(C)[C@@H]1NC(=O)[C@H](CCCCN)NC(=O)[C@@H](Cc2c[nH]c3ccccc23)NC(=O)[C@H](Cc2ccc(O)cc2)NC(=O)[C@H](NC(=O)[C@H](N)Cc2ccc3ccccc3c2)CSSC[C@@H](C(=O)N[C@@H](Cc2ccc3ccccc3c2)C(N)=O)NC1=O [H-Nal-cyclo[DCys-Tyr-DTrp-Lys-Val-Cys]-Nal-NH2] (H-[d2Nal][dC]Y[dW]KVC[2Nal]-NH2; disulfide 2-7)	> 10000		220	2800
CSCC[C@H](NC(=O)[C@H](CC(C)C)NC(=O)[C@H](CO)NC(=O)CNC(=O)[C@@H](NC(=O)[C@H](C)NC(=O)[C@H](Cc1c[nH]c2ccccc12)NC(=O)[C@H](CC(C)C)NC(=O)[C@@H]1CCC(=O)N1)C(C)C)C(N)=O [Leu8-phyllolitorin] ([pGlu]LWAVGSLM-NH2)	420		> 10000	5400
CC(C)C[C@@H](CN[C@@H](CC(C)C)C(N)=O)NC(=O)[C@H](Cc1cnc[nH]1)NC(=O)CNC(=O)[C@@H](NC(=O)[C@H](C)NC(=O)[C@H](Cc1c[nH]c2ccccc12)NC(=O)[C@H](CCC(N)=O)NC(=O)[C@H](CC(N)=O)NC(=O)CNC(=O)[C@H](CC(C)C)NC(=O)[C@H](CCCN=C(N)N)NC(=O)[C@H](CCC(N)=O)NC(=O)[C@@H]1CCC(=O)N1)C(C)C [Leu13,Psi(CH2NH),Leu14-BN] ([pGlu]QRLGNQWAVGH-X1)	430		> 10000	> 10000
CSCCC(NC(=O)C(CC(C)C)NC(=O)C(Cc1cnc[nH]1)NC(=O)CNC(=O)C(NC(=O)C(C)NC(=O)C(Cc1c[nH]c2ccccc12)NC(=O)C(Cc1cnc[nH]1)NC(=O)C(CC(N)=O)NC(=O)CN)C(C)C)C(N)=O (configuration not stated) [NSC_5486814]	20		140	> 10000
CSCC[C@H](NC(=O)[C@H](Cc1ccccc1)NC(=O)[C@H](CO)NC(=O)CNC(=O)[C@@H](NC(=O)[C@H](C)NC(=O)[C@H](Cc1c[nH]c2ccccc12)NC(=O)[C@H](CC(C)C)NC(=O)[C@@H]1CCC(=O)N1)C(C)C)C(N)=O [NSC_5748287]	240		47	2100
CSCC[C@H](NC(=O)[C@@H](Cc1c[nH]c2ccccc12)NC(=O)[C@@H](Cc1c[nH]c2ccccc12)NC(=O)[C@H](Cc1ccccc1)NC(=O)[C@@H](Cc1c[nH]c2ccccc12)NC(=O)[C@H](CCC(N)=O)NC(=O)[C@H](CCC(N)=O)NC(=O)[C@H]1CCCN1)C(N)=O [Substance P(4-11),[Dpro4,Dtrp7,9,10]] (H-[dP]QQ[dW]F[dW][dW]M-NH2)	> 10000		2500	2300
CC(C)C[C@H](NC(=O)[C@H](CC(C)C)NC(=O)[C@@H](Cc1c[nH]c2ccccc12)NC(=O)[C@H](Cc1ccccc1)NC(=O)[C@@H](Cc1c[nH]c2ccccc12)NC(=O)[C@H](CCC(N)=O)NC(=O)[C@H](CCC(N)=O)NC(=O)[C@@H]1CCCN1C(=O)[C@H](CCCCN)NC(=O)[C@@H]1CCCN1C(=O)[C@H](N)CCCN=C(N)N)C(N)=O [Substance P,[DArg1,DTrp7,9,Leu11]] (H-[dR]PKPQQ[dW]F[dW]LL-NH2)	11300		4100	> 10000
H-EGGGPQWAVGHFM-NH2 [PG-L]	3		210	5300
